Results reported in patent publication US9433212B2, “Plant growth regulator and method for using the same” (NIHON NOHYAKU CO., LTD., priority 2011, dated 2016).

Key:
Format in all cases: in vivo
[1] = tested on: Scirpophaga incertulas; assay: Test Example 1: control of Scirpophaga incertulas (dead hearts) in paddy field; conditions: for Percentage of control of S. incertulas: 43 days after transplantation; for Percentage of S. incertulas-caused dead hearts: applied once 10 days after transplantation, assessed 43 days after transplantation
Description: (§1) Paddy rice plants were transplanted to an experimental paddy field (50 m^2, planted with 1250 paddy rice plants on average), and 10 days later, granules containing flubendiamide as an active ingredient were applied once at the predetermined doses. At 43 days after the transplantation, in 10 rice plants chosen at random, the percentage of Scirpophaga incertulas-caused dead hearts per plant, the percentage of control of Scirpophaga incertulas, the stem number per plant, and the percentage of increase in the stem number were measured. To exclude the positive effect of the insecticidal action of flubendiamide on the growth of paddy rice plants, chlorantraniliprole, which has an equivalent insecticidal action, was used as a control agrochemical.

[2] = tested on: paddy rice plants; assay: Test Example 1: increase in stem number (promotion of tillering) of paddy rice plants; conditions: for Stem number/plant: 43 days after transplantation; for Percentage of increase in stem number: non-treatment = 100
Description: as §1

[3] = tested on: germinating rice seeds (variety: Nihonbare); assay: Test Example 2: rooting promotion and plant height growth in paddy rice plants (agar test); conditions: 25 ppm in 0.7% agar, 8 days after seeding
Method: A 0.7% agar solution containing 25 ppm of flubendiamide was poured into a glass cylinder (3 cm diameter×10 cm) and allowed to be solidified. Onto the solidified agar, ten germinating rice seeds (variety: Nihonbare) were sown. Then, the top of the cylinder was covered with Japanese paper and the cylinder was placed in a thermostatic chamber (light-dark cycle: 16 hours of light and 8 hours of dark, relative humidity: 60 to 70%) at 25° C. At 8 days after the seeding, the lengths of the longest root (primary root) and the stem-and-leaf part extending from each seed-rice were measured and the averages were calculated. The percentages of elongation were also calculated with the proviso that the non-treatment levels were set as 100.

[4] = tested on: rice plants (variety: Takanari); assay: Test Example 3: yield increase (numbers of panicles and unhulled rice grains) of paddy rice plants; conditions: for Panicle number/plant / Unhulled rice grain number/plant: harvest at 100 days; for Percentage of increase (panicle number) / Percentage of increase (unhulled rice grain number): non-treatment = 100
Method: Rice plants (variety: Takanari) of the 6.5- to 7-leaf stage were transplanted to 1-m^2 plots of a paddy field, and 2 or 12 days later, flubendiamide granules were applied at the predetermined doses. The test was performed in 4 replications. At 100 days after the transplantation, the rice plants were harvested, the numbers of panicles and unhulled rice grains per plant were measured and the averages were calculated. The percentages of increase were also calculated with the proviso that the non-treatment levels were set as 100.

[5] = 35 g a.i./ha granules applied 2 days after transplantation
[6] = 35 g a.i./ha granules applied 12 days after transplantation
[7] = 35 g a.i./ha, applied 2 days after transplantation
[8] = 35 g a.i./ha, applied 12 days after transplantation
[9] = 70 g a.i./ha granules applied 2 days after transplantation
[10] = 70 g a.i./ha granules applied 12 days after transplantation
[11] = 70 g a.i./ha, applied 2 days after transplantation
[12] = 70 g a.i./ha, applied 12 days after transplantation
[13] = regardless of application time and dose

With `CNC(=O)c1cc(Cl)cc(C)c1NC(=O)c1cc(Br)nn1-c1ncccc1Cl` [Chlorantraniliprole] the “Percentage of control of S. incertulas” value ([1]; 40 g a.i./ha) was 90.2%, the “Percentage of S. incertulas-caused dead hearts” value ([1]; 40 g a.i./ha) was 0.37% and the Stem number/plant ([2]; 40 g a.i./ha) was 26.35 /plant. The “Percentage of increase in stem number” value ([2]; 40 g a.i./ha) was 119%, the “Percentage of increase in stem number” value ([2]; 40 g a.i./ha, listed as chlorantraniliprole) was “about 120%” and the “Increase in stem number per plant compared with the non-treatment level” value ([2]; chlorantraniliprole treatment plot (40 g a.i./ha)) was “about four”.
With `Cc1cc(C(F)(C(F)(F)F)C(F)(F)F)ccc1NC(=O)c1cccc(I)c1C(=O)NC(C)(C)CS(C)(=O)=O` [Flubendiamide, 3-iodo-N′-(2-mesyl-1,1-dimethylethyl)-N-{4-[1,2,2,2-tetrafluoro-1-(trifluoromethyl)ethyl]-o-tolyl}phthalamide] the “Percentage of S. incertulas-caused dead hearts” value ([1]; 70 g a.i./ha granules) was 0.48%, the “Percentage of control of S. incertulas” value ([1]; 70 g a.i./ha) was 87.3% and the “Percentage of S. incertulas-caused dead hearts” value ([1]; 90 g a.i./ha granules) was 0.34%. The “Percentage of control of S. incertulas” value ([1]; 90 g a.i./ha) was 91.0%, the “Percentage of S. incertulas-caused dead hearts” value ([1]; 120 g a.i./ha granules) was 0.30% and the “Percentage of control of S. incertulas” value ([1]; 120 g a.i./ha) was 92.1%. For the same compound, the Stem number/plant ([2]; 70 g a.i./ha) was 39.6 /plant, the “Percentage of increase in stem number” value ([2]; 70 g a.i./ha) was 178% and the Stem number/plant ([2]; 90 g a.i./ha) was 38.0 /plant. The “Percentage of increase in stem number” value ([2]; 90 g a.i./ha) was 171%, the Stem number/plant ([2]; 120 g a.i./ha) was 39.15 /plant and the “Percentage of increase in stem number” value ([2]; 120 g a.i./ha) was 176%. The “Increase in stem number per plant compared with the non-treatment level” value ([2]; flubendiamide treatment plots, regardless of dose (70-120 g a.i./ha)) was “about 17”, the Average root length ([3]; 25° C.) was 6.7 cm and the Average stem-and-leaf length ([3]; 25° C.) was 3.9 cm. For the same compound, the “Percentage of elongation in root length” value ([3]; non-treatment = 100) was 160%, the “Percentage of elongation in stem-and-leaf length” value ([3]; non-treatment = 100) was 170% and the Panicle number/plant [4, 5] was 10.4 /plant. The “Unhulled rice grain number/plant” value [4, 5] was 1360.3 /plant, the Panicle number/plant [4, 6] was 11.9 /plant and the “Unhulled rice grain number/plant” value [4, 6] was 1528.0 /plant. For the same compound, the “Percentage of increase (panicle number)” value [4, 7] was 110%, the “Percentage of increase (unhulled rice grain number)” value [4, 7] was 110% and the “Percentage of increase (panicle number)” value [4, 8] was 126%. For the same compound, the “Percentage of increase (unhulled rice grain number)” value [4, 8] was 124%, the Panicle number/plant [4, 9] was 11.2 /plant and the “Unhulled rice grain number/plant” value [4, 9] was 1484.0 /plant. For the same compound, the Panicle number/plant [4, 10] was 12.5 /plant, the “Unhulled rice grain number/plant” value [4, 10] was 1600.0 /plant and the “Percentage of increase (panicle number)” value [4, 11] was 119%. The “Percentage of increase (unhulled rice grain number)” value [4, 11] was 120%, the “Percentage of increase (panicle number)” value [4, 12] was 132% and the “Percentage of increase (unhulled rice grain number)” value [4, 12] was 130%. For the same compound, the “Numbers of panicles versus non-treatment levels” value [4, 13] was “significantly increased” and the “Numbers of unhulled rice grains versus non-treatment levels” value [4, 13] was “significantly increased”.
